Here are results for two molecules from ChEMBL document CHEMBL5726394, “Therapeutic compounds and compositions” (2019).

This experiment has as its target Isocitrate dehydrogenase [NADP], mitochondrial (Homo sapiens, UniProt P48735, R140Q). Put plainly: IDH2 Enzymatic Assay: Compounds were assayed for IDH2 R140Q inhibitory activity through a cofactor depletion assay. […] The reaction was terminated by the addition of a second enzyme, diaphorase, and a corresponding substrate, resazurin. Diaphorase reduces resazurin to the highly fluorescent resorufin with the concomitant oxidation of NADPH to NADP, both halting the IDH2 reaction by depleting the available cofactor pool and facilitating quantitation of the amount of cofactor remaining after a specific time period through quantitative production of an easily detected fluorophore.Specifically, into each of 12 wells of a 384-well plate, 1 μl of compound dilution series was placed, followed by the addition of 40 μl of buffer (50 mM potassium phosphate, pH 7.5; 150 mM NaCl; 10 mM MgCl2, 10% glycerol, 0.05% bovine serum albumin, 2 mM beta-mercaptoethanol) containing 1.25 μg/ml IDH2 R140Q. The compound was then incubated for one hour at room temperature with the enzyme; before starting the IDH2 reaction with the addition of 10 μl of substrate mix containing 50 μM NADPH and 6.3 mM α-KG in the buffer described above. After a further one hour of incubation at room temperature, the reaction was halted and the remaining NADPH measured through conversion of resazurin to resorufin by the addition of 25 μl Stop Mix (36 μg/ml diaphorase enzyme and 60 μM resazurin; in buffer). […]. Background: The colour change of resazurin is a common sign of viable cells or microbes.

Sequence of Isocitrate dehydrogenase [NADP], mitochondrial (P48735 40-452 R140Q limits assumed): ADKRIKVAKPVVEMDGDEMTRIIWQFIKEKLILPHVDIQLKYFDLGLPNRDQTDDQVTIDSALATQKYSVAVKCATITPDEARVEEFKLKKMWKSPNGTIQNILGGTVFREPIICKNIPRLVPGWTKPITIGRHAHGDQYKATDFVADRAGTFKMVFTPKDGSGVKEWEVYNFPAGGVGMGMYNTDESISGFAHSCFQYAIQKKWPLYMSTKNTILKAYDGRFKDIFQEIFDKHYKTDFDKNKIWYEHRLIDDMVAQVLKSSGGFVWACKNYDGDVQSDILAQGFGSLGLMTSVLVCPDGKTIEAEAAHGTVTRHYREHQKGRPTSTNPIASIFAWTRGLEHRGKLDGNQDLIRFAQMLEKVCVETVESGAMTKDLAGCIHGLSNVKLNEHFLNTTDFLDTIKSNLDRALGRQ

What is called IC50 is the midpoint of a concentration-inhibition curve. A higher IC50 goes with lower potency. With `CCSc1ccc(S(=O)(=O)NCC(F)(F)F)cc1NC(=O)Nc1cccc(C(F)(F)F)c1`, the IC50 was below 100 nM. For `O=C(Nc1cccc(C(F)(F)F)c1)Nc1cc(S(=O)(=O)Nc2ccccc2)ccc1-c1cccs1` the value was 100 to 1000 nM.
